Results as given in patent US10508126B2, “Bisphosphonates vinylic monomers and polymers and uses thereof” (BAR-ILAN UNIVERSITY, priority 2012, dated 2019).

Test: Inhibition of HAP dissolution (calcium in supernatant by ICP)
Format: physicochemical
Conditions: compound 1 mM; supersaturated calcium phosphate, 0.05 M Tris pH 7.4, 37° C., 24 h
Experimental: The test based on a slightly modified method of Francis et al. (Francis, M. D. The inhibition of calcium hydroxyapatite crystal growth by polyphosphonates and polyphosphates. Calcif Tissue Res 1969, 3, 151-162). The extent of HAP formation in the presence of inhibitors was studied in supersaturated calcium phosphate solutions.
The final concentration of calcium (CaCl2.2H2O) and phosphate (K2HPO4) ions in the incubation solutions was 3.87 mM and 2.32 mM, respectively, yielding a molar ratio of [Ca]/[PO4]=1.67, as in hydroxyapatite (HAP). Each salt solution was prepared in 0.05 M Tris buffer, pH 7.4. The tested BP compound (1 mM) was dissolved in […]. 5 ml of 7.74 mM CaCl2.2H2O solution containing the BP compound and 5 ml of the 4.64 mM K2HPO4 were mixed in borosilicate glass vials (acid and acetone washed). The vials were then placed in a shaker at 37° C. for 24 h. The vials contents were centrifuged (4 min, 4000 rpm) and the supernatants were then separated and analyzed for calcium concentration by ICP Analysis.

SMILES: C=Cc1ccc(C(O)(P(=O)([O-])[O-])P(=O)([O-])O)cc1.[Na+].[Na+].[Na+] [St-BP monomer, Trisodium hydroxyl (4-vinylphenyl) methelenebisphosphonic acid]
- Calcium ions concentration in filtrate (% of initial concentration): 45 % of initial concentration
